In the NIST ThermoML archive (doi:10.1016/j.jct.2004.11.016):

Columns and labels:
[1] = Liquid; for mass density: 101.3 kPa; for viscosity: 101 kPa
[2] = xn = mol fraction of the nth substance listed; settings: Liquid, x2 = 0; for viscosity: 101 kPa; for mass density: 101.3 kPa

CN(C)CCO [2-(N,N-dimethylamino)ethanol]
[1]
Settings | mass density [kg/m3] | viscosity [mPa·s]
293.15 K | 887.816 | –
298.15 K | 883.578 | –
303.15 K | 879.315 | –
308.15 K | 875.017 | –
313.15 K | 870.686 | 2.238
318.15 K | 866.316 | –
323.15 K | 861.902 | 1.756
328.15 K | 857.46 | –
333.15 K | 852.965 | 1.413
338.15 K | 848.423 | –
343.15 K | 843.844 | 1.156
348.15 K | 839.205 | –
353.15 K | 834.521 | 0.963
358.15 K | 829.779 | –
363.15 K | 824.969 | –

O [water] + CN(C)CCO
[2]
Settings | mass density [kg/m3] | viscosity [mPa·s]
313.15 K | – | 0.651
323.15 K | 988.03 | 0.544
328.15 K | 985.688 | –
333.15 K | 983.191 | 0.463
338.15 K | 980.546 | –
343.15 K | 977.759 | 0.396
348.15 K | 974.838 | –
353.15 K | 971.785 | 0.348
358.15 K | 968.606 | –
363.15 K | 965.305 | –

O [water]
[1]
Settings | mass density [kg/m3] | viscosity [mPa·s]
313.15 K | – | 0.651
323.15 K | 988.03 | 0.544
328.15 K | 985.688 | –
333.15 K | 983.191 | 0.463
338.15 K | 980.546 | –
343.15 K | 977.759 | 0.396
348.15 K | 974.838 | –
353.15 K | 971.785 | 0.348
358.15 K | 968.606 | –
363.15 K | 965.305 | –
